According to ChEMBL document CHEMBL2046413, “Iridoid glucosides and a C₁₃-norisoprenoid from Lamiophlomis rotata and their effects on NF-κB activation” (Bioorg Med Chem Lett, 2012):

Assays:
HEK293 [1] = assay: Inhibition of LPS-induced NF-KB transcriptional activity expressed in HEK-293 cells at 100 ug/ml after 4 hrs by luciferase reporter gene assay relative to LPS-treated group; assay type: cell-based
HEK293 [2] = assay: Inhibition of LPS-induced NF-KB transcriptional activity expressed in HEK-293 cells at 10 ug/ml after 4 hrs by luciferase reporter gene assay relative to LPS-treated group; assay type: cell-based
HEK293 [3] = assay: Inhibition of LPS-induced NF-KB transcriptional activity expressed in HEK-293 cells at 1 ug/ml after 4 hrs by luciferase reporter gene assay relative to LPS-treated group; assay type: cell-based
HEK293 [4] = assay: Inhibition of NF-KB production in human HEK293 cells by BCA protein assay; assay type: functional, cell-based

With COC(=O)C1=CO[C@@H](O[C@@H]2O[C@H](CO)[C@@H](O)[C@H](O)[C@H]2O)[C@@H]2[C@@](C)(O)[C@@H](O)[C@@H](O)[C@]12O the NF-κB luciferase activity relative to LPS-treated group (HEK293 [1]) was 0.49, the RLU (HEK293 [2]) was 0.34 and the NF-κB luciferase activity relative to LPS-treated group (HEK293 [3]) was 0.56.

COC(=O)C1=CO[C@@H](O[C@@H]2O[C@H](CO)[C@@H](O)[C@H](O)[C@H]2O)[C@@H]2[C@H](C)[C@@H](O)C[C@H]12 gave an NF-κB luciferase activity relative to LPS-treated group (HEK293 [1]) of 0.26, an RLU (HEK293 [2]) of 0.13 and an NF-κB luciferase activity relative to LPS-treated group (HEK293 [3]) of 0.14.

Compound C[C@]12CCC(=O)C=C1CC[C@@H]1[C@@H]2[C@@H](O)C[C@@]2(C)[C@H]1CC[C@]2(O)C(=O)CO has an NF-κB luciferase activity relative to LPS-treated group (HEK293 [1]) of 0.45, an RLU (HEK293 [2]) of 0.32 and an NF-κB luciferase activity relative to LPS-treated group (HEK293 [3]) of 0.26.

C=CC(C)(O)CC/C=C(\C)C(=O)O[C@@H]1C[C@](C)(OC(C)=O)[C@H]2[C@H](O[C@@H]3O[C@H](CO)[C@@H](O)[C@H](O)[C@H]3O)OC=C(C(=O)OC)[C@H]21 (stereo partly specified) gave an NF-κB luciferase activity relative to LPS-treated group (HEK293 [1]) of 0.31, an RLU (HEK293 [2]) of 0.21 and an NF-κB luciferase activity relative to LPS-treated group (HEK293 [3]) of 0.25.

For COC(=O)C1=CO[C@@H](O[C@@H]2O[C@H](CO)[C@@H](O)[C@H](O)[C@H]2O)[C@H]2[C@@H]1[C@H](O)C[C@]2(C)OC(C)=O, the NF-κB luciferase activity relative to LPS-treated group (HEK293 [1]) was 0.34, the RLU (HEK293 [2]) was 0.4 and the NF-κB luciferase activity relative to LPS-treated group (HEK293 [3]) was 0.13.

With C=C1C[C@@H](O)[C@@H]2C(C(=O)OC)=CO[C@@H](O[C@@H]3O[C@H](CO)[C@@H](O)[C@H](O)[C@H]3O)[C@H]12 the NF-κB luciferase activity relative to LPS-treated group (HEK293 [1]) was 0.4, the RLU (HEK293 [2]) was 0.43 and the NF-κB luciferase activity relative to LPS-treated group (HEK293 [3]) was 0.26.

Work on COC(=O)C1=CO[C@@H](O[C@@H]2O[C@H](CO)[C@@H](O)[C@H](O)[C@H]2O)[C@@H]2[C@@](C)(O)[C@H](O)[C@@H](O)[C@]12O yielded an NF-κB luciferase activity relative to LPS-treated group (HEK293 [1]) of 0.31, an RLU (HEK293 [2]) of 0.34 and an NF-κB luciferase activity relative to LPS-treated group (HEK293 [3]) of 0.18.

COC(=O)C1=CO[C@@H](O[C@@H]2O[C@H](CO)[C@@H](O)[C@H](O)[C@H]2O)[C@@H]2[C@@H](C)[C@@H](O)C[C@H]12 gave an NF-κB luciferase activity relative to LPS-treated group (HEK293 [1]) of 0.56, an RLU (HEK293 [2]) of 0.56 and an NF-κB luciferase activity relative to LPS-treated group (HEK293 [3]) of 0.66.

With COC(=O)C1=CO[C@@H](O[C@@H]2O[C@H](CO)[C@@H](O)[C@H](O)[C@H]2O)[C@H]2[C@@H]1[C@H](O)[C@@H](Cl)[C@]2(C)O the NF-κB luciferase activity relative to LPS-treated group (HEK293 [1]) was 0.22, the RLU (HEK293 [2]) was 0.19 and the NF-κB luciferase activity relative to LPS-treated group (HEK293 [3]) was 0.05.

Compound COC(=O)C1=CO[C@@H](O[C@@H]2O[C@H](CO)[C@@H](O)[C@H](O)[C@H]2O)[C@H]2[C@@H]1[C@H](OC(C)=O)C[C@]2(C)O has an NF-κB luciferase activity relative to LPS-treated group (HEK293 [1]) of 0.11, an RLU (HEK293 [2]) of 0.13 and an NF-κB luciferase activity relative to LPS-treated group (HEK293 [3]) of 0.06.

With COC(=O)C1=CO[C@@H](O[C@@H]2O[C@H](CO)[C@@H](O)[C@H](O)[C@H]2O)[C@H]2[C@@H]1[C@H](O)C[C@]2(C)O the NF-κB luciferase activity relative to LPS-treated group (HEK293 [1]) was 0.31, the RLU (HEK293 [2]) was 0.21 and the NF-κB luciferase activity relative to LPS-treated group (HEK293 [3]) was 0.39.

Work on COC(=O)C1=CO[C@@H](O[C@@H]2O[C@H](CO)[C@@H](O)[C@H](O)[C@H]2O)[C@H]2[C@@H]1[C@H](O)[C@H](O)[C@@]2(C)O yielded an NF-κB luciferase activity relative to LPS-treated group (HEK293 [1]) of 0.38, an RLU (HEK293 [2]) of 0.15 and an NF-κB luciferase activity relative to LPS-treated group (HEK293 [3]) of 0.37.

For COC(=O)C1=CO[C@@H](O[C@@H]2O[C@H](CO)[C@@H](O)[C@H](O)[C@H]2O)[C@H]2[C@@H]1[C@H](O)[C@H](O)[C@]2(C)O, the NF-κB luciferase activity relative to LPS-treated group (HEK293 [1]) was 0.41, the RLU (HEK293 [2]) was 0.19 and the NF-κB luciferase activity relative to LPS-treated group (HEK293 [3]) was 0.23.

For COC(=O)C1=CO[C@@H](O[C@@H]2O[C@H](CO)[C@@H](O)[C@H](O)[C@H]2O)[C@@H]2[C@@]3(C)O[C@H]3[C@@H](O)[C@]12O, the NF-κB luciferase activity relative to LPS-treated group (HEK293 [1]) was 0.36, the RLU (HEK293 [2]) was 0.14 and the NF-κB luciferase activity relative to LPS-treated group (HEK293 [3]) was 0.15.

COC(=O)C1=CO[C@@H](O[C@@H]2O[C@H](CO)[C@@H](O)[C@H](O)[C@H]2O)[C@H]2[C@@H]1[C@H](OC(=O)c1cc(OC)c(O)c(OC)c1)C[C@]2(C)OC(C)=O showed an NF-κB luciferase activity relative to LPS-treated group (HEK293 [1]) of 0.42, an RLU (HEK293 [2]) of 0.08 and an NF-κB luciferase activity relative to LPS-treated group (HEK293 [3]) of 0.12.

COC(=O)C1=CO[C@@H](O[C@@H]2O[C@H](COC(=O)c3cc(OC)c(O)c(OC)c3)[C@@H](O)[C@H](O)[C@H]2O)[C@H]2[C@@H]1[C@H](O)[C@@H]1O[C@]21C showed an NF-κB luciferase activity relative to LPS-treated group (HEK293 [1]) of 0.48, an RLU (HEK293 [2]) of 0.32 and an NF-κB luciferase activity relative to LPS-treated group (HEK293 [3]) of 0.55.

For COC(=O)C1=CO[C@@H](O[C@@H]2O[C@H](CO)[C@@H](O)[C@H](O)[C@H]2O)[C@@H]2[C@H](C)CC[C@H]12, the NF-κB luciferase activity relative to LPS-treated group (HEK293 [1]) was 0.62, the inhibition (HEK293 [4]) was “Dose-dependent effect” and the RLU (HEK293 [2]) was 0.44. It also gave an NF-κB luciferase activity relative to LPS-treated group (HEK293 [3]) of 0.23.

In the case of COC(=O)C1=CO[C@@H](O[C@@H]2O[C@H](CO)[C@@H](O)[C@H](O)[C@H]2O)[C@@H]2C(C)=C[C@@H](O)[C@H]12, the NF-κB luciferase activity relative to LPS-treated group (HEK293 [1]) is reported as 0.68, the RLU (HEK293 [2]) is reported as 0.59 and the NF-κB luciferase activity relative to LPS-treated group (HEK293 [3]) is reported as 0.5.

COC(=O)C1=CO[C@@H](O[C@@H]2O[C@H](CO)[C@@H](O)[C@H](O)[C@H]2O)[C@H]2[C@@H]1[C@H](O)[C@@H]1O[C@]21C was tested, and the NF-κB luciferase activity relative to LPS-treated group (HEK293 [1]) was 0.42, the RLU (HEK293 [2]) was 0.46 and the NF-κB luciferase activity relative to LPS-treated group (HEK293 [3]) was 0.23.

With COC(=O)C1=CO[C@@H](O[C@@H]2O[C@H](CO)[C@@H](O)[C@H](O)[C@H]2O)[C@@H]2C(C)=C[C@@H](O)[C@]12O the NF-κB luciferase activity relative to LPS-treated group (HEK293 [1]) was 0.24, the inhibition (HEK293 [4]) was “Dose-dependent effect” and the RLU (HEK293 [2]) was 0.18. The NF-κB luciferase activity relative to LPS-treated group (HEK293 [3]) was 0.06.

In the case of CCCCO[C@@H]1C=C(C)[C@H]2[C@H](O[C@@H]3O[C@H](CO)[C@@H](O)[C@H](O)[C@H]3O)OC=C(C(=O)OC)[C@H]21, the NF-κB luciferase activity relative to LPS-treated group (HEK293 [1]) is reported as 0.48, the inhibition (HEK293 [4]) is reported as “Dose-dependent effect” and the RLU (HEK293 [2]) is reported as 0.38. For the same compound, the NF-κB luciferase activity relative to LPS-treated group (HEK293 [3]) was 0.15.
